Data taken from patent US20210269824A1, “VIRAL VECTOR FOR TREATING AUTOIMMUNE DISEASE AND DIABETES AND CONSTRUCTION METHOD AND APPLICATION THEREOF” (Guangzhou Huazhen Pharmaceutical Co., Ltd., priority 2017, published 2021).

System: peripheral blood CD4 T-cells of patients with type 1 diabetes
Assay: Differentiation of peripheral blood CD4 T-cells (Th1, Th2, Th17, Treg) after in vitro treatment, flow cytometry
Assay type: cell-based, human
Details: 100 μM, 24 h in vitro, lymphocytes of type 1 diabetes patients
Method: (1) 5 ml peripheral blood was extracted from patients and normal humans separately, diluted twice with PBS of pH 7.2, and then mixed with lymphocyte separation solution Lymphoprep (Axis-Shield, Norway), centrifuged at 3500 rpm for 20 min, then the lymphocytes were taken out and cultured in RPMI1640 medium (purchased from Gibco) to obtain the cultured lymphocytes. The above cultured lymphocytes were treated in vitro with DHA (docosahexaenoic acid) at a final concentration of 100 μM, EPA (eicosapentaenoic acid) at a final concentration of 100 μM, and AA (arachidonic acid) at a final concentration of 100 μM for 24 h, respectively. After treating, changes in intracellular cytokines of CD4 T-cells in the above lymphocytes were detected. (The above DHA, EPA and AA are all purchased from Sigma).
(2) labeling of intracellular cytokines of CD4 T-cells: The lymphocytes (number up to 1×10^5) from patients and normal humans in the above steps were placed to different marked tubes. Labeled fluorescent monoclonal antibodies CD3 (0.1 μg) and CD8 (0.1 μg) were added into each tube. Then 1 ml paraformaldehyde having a concentration of 4% by weight was added into each tube, mixed well and incubated at room temperature (20° C.-30° C.) for 20 min. 1 ml intraprep permeabilization reagent, i.e. 0.5% saponin, was added, incubated at room temperature (20° C.-30° C.) for 30 min, then centrifuged for 5 min at 300 g, 4° C. to obtain a supernatant and a precipitate. The supernatant was removed, and 80 μl 0.5% saponin was added to re-suspend the precipitate to obtain suspensions. The obtained suspensions were labeled respectively with IFN-γ fluorescent monoclonal antibody (0.1 μg), IL-17 fluorescent monoclonal antibody (0.1 μg), IL-4 fluorescent monoclonal antibody (0.1 μg), and Foxp3 fluorescent monoclonal antibody (0.1 μg), and incubated in dark place at 4° C. for 1 h (for the suspension labeled with Foxp3 fluorescent monoclonal antibody, incubation and rupture took 8 h). The labeled cells were washed three times with 0.5% saponin, centrifuged for 5 min at 300 g, 4° C. to obtain a supernatant and a precipitate. The supernatant was removed, and the precipitate was fixed with paraformaldehyde having a mass concentration of 1%. After 24 h, percentages of Th1, Th2, Th17 and Treg cells were analyzed with a flow cytometer Accuri-C6. The antibodies and instruments used in the above steps were all purchased from BD Bioscience.
The CON in FIG. 2 represents a control group, i.e. the lymphocytes of peripheral blood from normal humans not treated with DHA, EPA or AA. The CON in FIG. 3 represents a control group, i.e. the lymphocytes of peripheral blood from patients not treated with DHA, EPA, or AA. In FIG. 2, figures A, B, C, D, and E show percentages of Th1, Th2, Th1/Th2, Th17 and Treg cells in peripheral blood CD4 T-cells of normal subjects, respectively, and figures F, G, H, I and J show percentages of Th1, Th2, Th1/Th2, Th17 and Treg cells in peripheral blood CD4 T-cells of patients, respectively. In FIG. 3, figures A, B, C, and D show percentages of transcription factors T-bet, GATA3, RORγT, and Foxp3 in peripheral blood CD4 T-cells of patients, respectively. As shown in FIGS. 2-3, in peripheral blood CD4 T-cells of patients with type 1 diabetes treated with DHA, EPA and AA respectively, the percentages of Th1 and Th17 cells decreased, and the percentages of Th2 and Treg cells increased, and the ratio of Th1/Th2 and the ratio of T17/Treg were rebalanced.

CCCCC/C=C\C/C=C\C/C=C\C/C=C\CCCC(=O)O [AA, arachidonic acid]
ratio of T17/Treg: rebalanced | ratio of Th1/Th2: rebalanced | percentage of Th1 cells (vs untreated): decreased | percentage of Th2 cells (vs untreated): increased | percentage of Th17 cells (vs untreated): decreased | percentage of Treg cells (vs untreated): increased
